From patent US20100120775A1, “Farnesoid X Receptor Agonists” (SMITHKLINE BEECHAM CORPORATION, priority 2006, published 2010)

Legend:
[1] = molecular target: T1, Human FXRα Ligand Binding Domain (Homo sapiens, UniProt Q96RI1); test: FXR Cofactor Binding Assay (FXR LBD / SRC-1 peptide, time resolved fluorescence); conditions: FXRα LBD with biotinylated SRC-1 (LCD2, 676-700) peptide, read-out: Activity (pEC50) (converted)
T1 construct: polyhistidine (pRSET-A vector) (N); made in house; host or cells: E. coli BL21 (DE3), pRSET-A vector
T1 sequence (Q96RI1 237-472 isoform Q96RI1-2): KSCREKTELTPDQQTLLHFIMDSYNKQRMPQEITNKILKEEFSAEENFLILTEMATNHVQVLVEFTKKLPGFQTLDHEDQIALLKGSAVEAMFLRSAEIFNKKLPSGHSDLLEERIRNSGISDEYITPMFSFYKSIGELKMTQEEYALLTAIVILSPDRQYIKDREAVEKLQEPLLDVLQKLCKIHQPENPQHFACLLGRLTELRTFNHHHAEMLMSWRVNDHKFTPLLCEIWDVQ
From the text: Determination of a ligand mediated cofactor peptide interaction to quantify ligand binding to the nuclear receptor Farnesoid X Receptor (FXR). The method measures the ability of putative ligands to modulate the interaction between the purified bacterial expressed FXRα ligand binding domain (LBD) and a synthetic biotinylated peptide based on residues 676-700 of steroid receptor coactivator-1 (SRC-1) (LXXLL-containing domain-2 where L is the amino acid leucine and X indicates any other amino acid (LCD2), 676-700). The sequence of the SRC-1 peptide used is as published in Iannone, M. A., et al., 2001 Cytometry 44:326-337 where the N-terminus was biotinylated (B) and the C-terminus was amidated. Detection of the associated complex was measured by time resolved fluorescence (TRF). The purified LBD of FXR was labeled with biotin then mixed with stoichiometric amounts of allophycocyanin (APC) labeled streptavidin (Molecular Probes). The biotinylated peptide was then mixed with a ½ stoichiometric amount of europium labeled streptavidin (Wallac Inc). Each was then blocked with a 5 fold excess of biotin and allowed to equilibrate for 15 min. Equimolar amounts of receptor and peptide were mixed together and were allowed to equilibrate for at least 30 min prior to the addition to either a variable or constant concentrations of the sample for which the affinity is to be determined. After equilibration, the time-resolved fluorescent signal was quantitated using a fluorescent plate reader. The affinity of the test compound was estimated from a plot of fluorescence versus concentration of test compound added.
A basal level of FXR: peptide formation is observed in the absence of added ligand. Ligands that promote the complex formation induce a concentration-dependent increase in time-resolved fluorescent signal. Compounds which bind equally well to both monomeric FXR and to the FXR: peptide complex would be expected to give no change in signal, whereas ligands which bind preferentially to the monomeric receptor would be expected to induce a concentration-dependent decrease in the observed signal.
Human FXRα Ligand Binding Domain (FXRα LBD) was expressed in E. coli strain BL21 (DE3) as an amino-terminal polyhistidine tagged fusion protein. Expression was under the control of an isopropyl-13-D-thiogalactopyranoside (IPTG) inducible T7 promoter. DNA encoding this recombinant protein is subcloned into the pRSET-A expression vector (Invitrogen). The coding sequence of Human FXRα LBD was derived from Genbank accession number U 68233 (amino acids 237 to 472).
Routinely, 30-40 g cell paste (equivalent to 2-3 liters of the fermentation batch) was resuspended in 200-250 mL Tris buffered saline (TBS), pH 7.2 (25 mM Tris-hydroxymethylamino methane (Tris), 150 mM sodium chloride). Cells were lysed by passing 3 times through a French Press and cell debris was removed by centrifugation (30 minutes, 20,000×gravity, 4° C.). The cleared supernatant was filtered through course pre-filters, and TBS, pH 7.2, 500 mM imidazole was added to obtain a final imidazole concentration of 50 mM. This lysate was loaded onto a column (6×8 cm) packed with Sepharose [Ni^|| charged]Chelation resin (Pharmacia) and pre-equilibrated with TBS pH 7.2/50 mM imidazole. After washing to baseline absorbance with equilibration buffer, the column was washed with one column volume of TBS pH 7.2 containing 90 mM imidazole. FXRα LBD was eluted directly with 365 mM imidazole. Column fractions were pooled and dialyzed against TBS, pH 7.2, containing 0.5 mM EDTA and 5 mM DTT. The dialyzed protein sample was concentrated using Centri-prep 10 K (Amicon) and subjected to size exclusion, using a column (3×90 cm) packed with Sepharose S-75 resin (Pharmacia) pre-equilibrated with TBS, pH 7.2, containing 0.5 mM ethylene diamine tetraacetic acid (EDTA) and 5 mM dithiothreitol (DTT). […]

[2] = tested on: high-fat diet fed obese mice; test: Effects of FXR agonists on diet induced obese mice; type: in vivo, C57BL mice; conditions: 10, 30, 100 mg/kg twice a day orally; for body fat mass: QMR; for NEFA / cholesterol / glycerol / insulin / triglyceride: serum
Description: Methods: Male 20 to 25 g C57BL mice (Charles River, Indianapolis, Ind.) were housed at 72° F. and 50% relative humidity with a 12 h light and dark cycle and fed with standard rodent chow (Purina 5001, Harlan Teklad, Indianapolis, Ind.) or a high-fat diet (TD93075, Harlan Teklad, Indianapolis, Ind.) for eight weeks. After three weeks, mice on high-fat diet were randomized to vehicle or treatment groups based on fasting glucose and body weight. Starting from the fifth week, mice were given either vehicle or the compound in Example 1 (10, 30, and 100 mg/kg) or the compound in Example 5 (10, 30, 100 mg/kg) twice a day orally. Mice on the standard rodent chow were also given vehicle as a control. Body composition was measured using the quantitative magnetic resonance (QMR) method before and at the end of compound treatment. […] Serum chemistry levels were measured using the Instrumentation Laboratory Ilab600TM clinical chemistry analyzer (Instrumentation Laboratory, Boston, Mass.).

| SMILES | EC50 [1] [nM] | other results |
| --- | --- | --- |
| CC(C)c1onc(-c2c(Cl)cccc2Cl)c1COc1ccc(-c2ccc3cc(C(=O)O)ncc3c2)cc1 [Example 5, 7-[4-({[3-(2,6-Dichlorophenyl)-5-(1-methylethyl)-4-isoxazolyl]methyl}oxy)phenyl]-3-isoquinolinecarboxylic acid] | 102 to 1000 | serum glucose [2]: decreased; body fat mass [2]: decreased; NEFA [2]: decreased; cholesterol [2]: decreased; glycerol [2]: decreased; insulin [2]: decreased; triglyceride [2]: decreased |
| Cc1nc2ccc(-c3ccc(OCc4c(-c5c(Cl)cccc5Cl)noc4C(C)C)cc3)cc2cc1C(=O)O [Example 35, 6-[4-({[3-(2,6-Dichlorophenyl)-5-(1-methylethyl)-4-isoxazolyl]methyl}oxy)phenyl]-2-methyl-3-quinolinecarboxylic acid] | 102 to 1000 |  |
| Cc1cccc(C)c1OCc1noc(C(C)C)c1COc1ccc(-c2ccc3nc(C(=O)O)ccc3c2)cc1 [Example 18, 6-[4-({[3-{[(2,6-Dimethylphenyl)oxy]methyl}-5-(1-methylethyl)-4-isoxazolyl]methyl}oxy)phenyl]-2-quinolinecarboxylic acid] | 102 to 1000 |  |
| CC(C)c1onc(-c2c(Cl)cccc2Cl)c1COc1ccc(-c2cc3ccc(C(=O)O)nc3cc2F)cc1 [Example 30, 6-[4-({[3-(2,6-Dichlorophenyl)-5-(1-methylethyl)-4-isoxazolyl]methyl}oxy)phenyl]-7-fluoro-2-quinolinecarboxylic acid] | 102 to 1000 |  |
| CC(C)c1onc(-c2c(Cl)cccc2Cl)c1COc1ccc(-c2ccc3nc(C(=O)O)ccc3c2)cc1 [Example 1, 6-[4-({[3-(2,6-Dichlorophenyl)-5-(1-methylethyl)-4-isoxazolyl]methyl}oxy)phenyl]-2-quinolinecarboxylic Acid] |  | serum glucose [2]: decreased; body fat mass [2]: decreased; NEFA [2]: decreased; cholesterol [2]: decreased; glycerol [2]: decreased; insulin [2]: decreased; triglyceride [2]: decreased |
| CC(C)c1onc(-c2c(Cl)cccc2Cl)c1COc1ccc(-c2ccc3cc(C(=O)O)cnc3c2)cc1 [Example 2, 7-[4-({[3-(2,6-Dichlorophenyl)-5-(1-methylethyl)-4-isoxazolyl]methyl}oxy)phenyl]-3-quinolinecarboxylic acid] | 102 to 1000 |  |
| O=C(O)c1ccc2cc(-c3ccc(OCc4c(-c5c(Cl)cccc5Cl)noc4C4CC4)cc3)ccc2n1 [Example 11, 6-[4-({[5-Cyclopropyl-3-(2,6-dichlorophenyl)-4-isoxazolyl]methyl}oxy)phenyl]-2-quinolinecarboxylic acid] | 102 to 1000 |  |
| Cc1ccnc(C)c1-c1noc(C(C)C)c1COc1ccc(-c2ccc3nc(C(=O)O)ccc3c2)cc1 [Example 29, 6-[4-({[3-(2,4-Dimethyl-3-pyridinyl)-5-(1-methylethyl)-4-isoxazolyl]methyl}oxy)phenyl]-2-quinolinecarboxylic acid] | 102 to 1000 |  |
| O=C(O)c1ccc2cc(-c3ccc(OCc4c(C5CCCC5)noc4C4CCCC4)cc3)ccc2n1 [Example 26, 6-(4-{[(3,5-Dicyclopentyl-4-isoxazolyl)methyl]oxy}phenyl)-2-quinolinecarboxylic acid] | 102 to 1000 |  |
| CC(C)c1onc(COc2c(F)cc(F)cc2F)c1COc1ccc(-c2ccc3nc(C(=O)O)ccc3c2)cc1 [Example 19, 6-(4-{[(5-(1-Methylethyl)-3-{[(2,4,6-trifluorophenyl)oxy]methyl}-4-isoxazolyl)methyl]oxy}phenyl)-2-quinolinecarboxylic acid] | 102 to 1000 |  |
| O=C(O)c1cc2ccc(-c3ccc(OCc4c(-c5c(Cl)cccc5Cl)noc4C4CC4)cc3)cc2cn1 [Example 10, 7-[4-({[5-Cyclopropyl-3-(2,6-dichlorophenyl)-4-isoxazolyl]methyl}oxy)phenyl]-3-isoquinolinecarboxylic acid] | 102 to 1000 |  |
| CC(C)c1onc(-c2c(Cl)cccc2Cl)c1COc1ccc(-c2ccc3c(C(=O)O)ccnc3c2)cc1 [Example 4, 7-[4-({[3-(2,6-Dichlorophenyl)-5-(1-methylethyl)-4-isoxazolyl]methyl}oxy)phenyl]-4-quinolinecarboxylic acid] | 102 to 1000 |  |
| CC(C)c1onc(-c2c(Cl)cccc2Cl)c1COc1ccc(-c2ccc3c(C(=O)O)cc(C(=O)O)nc3c2)cc1 [Example 3, 7-[4-({[3-(2,6-Dichlorophenyl)-5-(1-methylethyl)-4-isoxazolyl]methyl}oxy)phenyl]-2,4-quinolinedicarboxylic acid] | 102 to 1000 |  |

Second part, led by results:

| EC50 [1] [nM] | SMILES | other results |
| --- | --- | --- |
| 102 to 1000 | CC(C)c1onc(-c2c(Cl)cccc2Cl)c1CSc1ccc(-c2ccc3nc(C(=O)O)ccc3c2)cc1 [Example 38, 6-[4-({[3-(2,6-Dichlorophenyl)-5-(1-methylethyl)-4-isoxazolyl]methyl}thio)phenyl]-2-quinolinecarboxylic acid] |  |
| 102 to 1000 | CC(C)c1onc(CNc2c(Cl)cccc2Cl)c1COc1ccc(-c2ccc3nc(C(=O)O)ccc3c2)cc1 [Example 21, 6-[4-({[3-{[(2,6-Dichlorophenyl)amino]methyl}-5-(1-methylethyl)-4-isoxazolyl]methyl}oxy)phenyl]-2-quinolinecarboxylic acid] |  |
| 102 to 1000 | CC(C)c1onc(-c2c(Cl)cncc2Cl)c1COc1ccc(-c2ccc3nc(C(=O)O)ccc3c2)cc1 [Example 25, 6-[4-({[3-(3,5-Dichloro-4-pyridinyl)-5-(1-methylethyl)-4-isoxazolyl]methyl}oxy)phenyl]-2-quinolinecarboxylic acid] |  |
| 102 to 1000 | Cc1cc(-c2ccc3nc(C(=O)O)ccc3c2)ccc1OCc1c(-c2c(Cl)cccc2Cl)noc1C(C)C [Example 32, 6-[4-({[3-(2,6-Dichlorophenyl)-5-(1-methylethyl)-4-isoxazolyl]methyl}oxy)-3-methylphenyl]-2-quinolinecarboxylic acid] |  |
| 102 to 1000 | CC[C@@H](C)c1onc(-c2c(Cl)cccc2Cl)c1COc1ccc(-c2ccc3nc(C(=O)O)ccc3c2)cc1 [Example 14, 6-{4-[({3-(2,6-Dichlorophenyl)-5-[(1R)-1-methylpropyl]-4-isoxazolyl}methyl)oxy]phenyl}-2-quinolinecarboxylic acid] |  |
| 102 to 1000 | CC(C)c1onc(-c2c(Cl)cccc2Cl)c1CCCOc1ccc(-c2ccc3nc(C(=O)O)ccc3c2)cc1 [Example 15, 6-[4-({3-[3-(2,6-Dichlorophenyl)-5-(1-methylethyl)-4-isoxazolyl]propyl}oxy)phenyl]-2-quinolinecarboxylic acid] |  |
